# Data from the NIST ThermoML archive (doi:10.1016/j.fluid.2012.02.005).
# Numbers after ± are expanded uncertainties.
# Conditions: Liquid; Ebulliometric method (Recirculating still)
row,Normal boiling temperature [°C],Compound
1,115.20 ± 0.2,Cc1ccsc1 [3-methylthiophene]
2,28.00 ± 0.21,CCC(C)C [2-methylbutane]
3,73.00 ± 0.2,"CC(C)=C(C)C [2,3-dimethyl-2-butene]"
4,98.49 ± 0.2,CCCCCCC [heptane]

row,Compound,Normal boiling temperature [°C]
1,Cc1ccccc1 [toluene],110.54 ± 0.2
